Results reported in PMC8438977, “Isolation of bioactive compounds from medicinal plants used in traditional medicine: Rautandiol B, a potential lead compound against Plasmodium falciparum” (BMC Complementary Medicine and Therapies, 2021).
Values after ≈ are worked out from the molar mass of the structure shown. Read-outs that look alike come from different tables or passages of the source.

What was measured:
[1] = test system: T. brucei rhodesiense (STIB-900); assay: Anti-trypanosomal assay (Alamar Blue, 72 h); assay type: cell-based, Trypanosoma brucei rhodesiense
Experimental: T. brucei rhodesiense (STIB-900) was maintained in Minimal Essential Medium (MEM) with Earle’s salts supplemented with 3 g/L sodium bicarbonate, 4.5 g/L glucose, 25 mM HEPES, pH 7.3, 0.05 mM bathocuproinedisulfonic acid disodium salt, 1.5 mM L-cysteine, 1 mM hypoxanthine, 0.16 mM thymidine, 1 mM sodium pyruvate, 0.2 mM 2-mercaptoethanol, 1% MEM non-essential amino acid, and 15% heated fetal bovine serum, at 37 °C in a 5% CO2 incubator. To assay anti-Tbr activity, a modified reported protocol was used. Briefly, 2 × 10^4 T. brucei rhodesiense parasites in 175 μL culture media were incubated with 25 μL of varying concentrations of each compound in a 96-well plate under the same culture conditions. Following 72 h incubation, 20 μL Alamar Blue (a resazurin solution) was added in each well. The mixture was further incubated for 3 h. The fluorescence signals were measured by a spectrofluorometer at ex530/em585 nm.

[2] = test system: Mycobacterium tuberculosis H37Rv (ATCC 27294); assay: Mycobacterium tuberculosis assay (Microplate Alamar Blue Assay, MIC); assay type: cell-based; conditions: pure compounds and controls, read-out: MTB H37Rv (MIC μM)
[3] = test system: Plasmodium falciparum TM4/8.2; assay: Antimalaria assay, [3H] hypoxanthine incorporation, TM4/8.2 strain; assay type: cell-based
Experimental: (§1) Plasmodium falciparum TM4/8.2 and K1CB1 strains were maintained in RPMI 1640 medium supplemented with 8% human serum, 2.5 mM HEPES and 2 g/L sodium bicarbonate. Parasite cultures were incubated at 37 °C in a 3% CO2 incubator. The crude extracts/pure compounds were tested against TM4/8.2 and K1CB1 P. falciparum in vitro by the modified [^3H] hypoxanthine incorporation assay. Briefly, stock solutions of the crude extracts or pure compounds were prepared in DMSO. Various concentrations of the samples were incubated with malaria parasites with a final volume of 225 μL, 1% parasitemia, 1.5% hematocrit, 0.1% dimethylsulfoxide (DMSO) in 96-well plates. Plates were incubated for 16–18 h. Then, 25 μL [^3H]-hypoxanthine solution was added and incubated for 20 h. The parasites were harvested onto a UniFilter-96 GF/B plate (PerkinElmer, USA). The filters in the plates were air-dried, and then 25 μL of liquid scintillation fluid (Microscint, Packard) was added. The radioactivity was then measured using a microplate scintillation counter (TopCount, Packard). The IC50 values of the crude extracts/ pure compounds were determined.

[4] = test system: Plasmodium falciparum K1CB1; assay: Antimalaria assay, [3H] hypoxanthine incorporation, K1CB1 strain; assay type: cell-based; conditions: for IC50: Plasmodium falciparum, read-out: P. f (IC50 μM) K1CB1
Experimental: as §1

[5] = molecular target: α-amylase (AA); assay: α-amylase inhibitory activity (AAI), starch-iodine assay; assay type: biochemical; conditions: in 50% DMSO
Experimental: AAI values were determined using a microplate-based starch–iodine assay. Assay reactions were initiated by adding 40 μL of starch (Sigma S-2630) solution (2.0 g/L) and 40 μL of enzyme in 0.1 M phosphate buffer at pH 7.0 to microplate wells. The enzyme was incubated with the samples for 5 min before adding the substrate. To minimize evaporative loss during incubation, a plastic mat was used to cover the microplate. […] Following color development, the absorbance at 580 nm was measured using a microplate reader (Bio-TEK ELx808 microplate reader, USA).

[6] = molecular target: T1, α-glucosidase (AG) (Saccharomyces cerevisiae, UniProt P53341); assay: biochemical; parameters: species or system S. cerevisiae; conditions: for IC50: in 50% DMSO; for inhibition at 250 µg/mL: samples 250 μg/mL in 50% DMSO, read-out: % Inhibition (AGI activity)
T1 construct: purchased Sigma
T1 sequence (P53341 whole entry): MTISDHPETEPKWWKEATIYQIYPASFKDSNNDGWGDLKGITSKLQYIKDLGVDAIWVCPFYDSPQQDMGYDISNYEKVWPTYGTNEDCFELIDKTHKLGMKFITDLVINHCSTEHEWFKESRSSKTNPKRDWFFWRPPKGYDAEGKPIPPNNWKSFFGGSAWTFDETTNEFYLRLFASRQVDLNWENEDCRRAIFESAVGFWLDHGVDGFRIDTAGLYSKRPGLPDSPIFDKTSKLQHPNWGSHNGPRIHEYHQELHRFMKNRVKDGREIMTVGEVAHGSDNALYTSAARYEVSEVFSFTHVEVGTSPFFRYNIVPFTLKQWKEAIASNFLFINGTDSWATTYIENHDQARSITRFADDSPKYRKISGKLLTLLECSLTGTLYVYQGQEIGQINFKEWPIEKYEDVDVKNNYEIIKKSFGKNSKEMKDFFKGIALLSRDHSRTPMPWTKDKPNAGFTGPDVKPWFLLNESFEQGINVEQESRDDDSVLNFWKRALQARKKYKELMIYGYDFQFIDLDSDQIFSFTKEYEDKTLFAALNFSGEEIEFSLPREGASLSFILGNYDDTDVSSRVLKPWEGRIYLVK
Experimental: AGI values of extracts and pure phytochemicals were quantitatively determined in a 96-well plastic plate according to the method described by Nguyen et al.. The enzyme was incubated with the samples dissolved in DMSO for 5 min before adding the substrate. The inhibition was measured spectrophotometrically in 20 mM sodium phosphate buffer pH 6.0 at 37 °C using 3.0 mM p-nitrophenyl α-D-glucopyranoside (Sigma) as the substrate and 0.25 units/mL of AG from S. cerevisiae (Sigma). The absorbance at 405 nm was measured using a microplate reader (BioTek ELx808 microplate reader, USA).

[7] = earlier reports; cited from earlier work
[8] = test system: VERO cells; parameters: method as in PMID 32798746; conditions: cited from earlier work
[9] = test system: BHK21 cells; parameters: method as in PMID 32798746; conditions: cited from earlier work
[10] = Trypanosoma brucei, RHODESIENSE, 72 h, pure compounds and control; 72 h; read-out: T. br (IC50 μM)
[11] = pure compounds and control; 72 h; read-out: T. br (IC50 μM)
[12] = pure compounds and controls, strain TM4/8.2, read-out: P. f (IC50 μM) TM4/8.2
[13] = pure compounds and controls, strain K1CB1
[14] = read-out: P. f (IC50 μM) TM4/8.2
[15] = Trypanosoma brucei, RHODESIENSE; pure compounds and control; 72 h; read-out: T. br (IC50 μM)

In the case of `N=C(N)c1ccc(OCCCCCOc2ccc(C(=N)N)cc2)cc1` [Pentamidine, reference compound], the IC50 [1, 10] is reported as 0.007 ± 4e-05 µM.

With `O=c1c(O)c(-c2ccc(O)cc2)oc2cc(O)cc(O)c12` [Compound 1, kempherol] the MIC [2] was > 20 µM, the IC50 [1, 10] was 10.3 ± 0.38 µM and the IC50 [1, 11] was 8.74 ± 0.49 µM. For the same compound, the “SR (safety ratio), T. brucei rhodesiense” value ([1]; safety ratio) was 3.3, the IC50 [3, 12] was > 50 µM and the IC50 [4, 13] was > 50 µM.

Work on `O=C1c2cc3ccoc3cc2O[C@]2(O)COc3cc4c(cc3[C@H]12)OCO4` [Compound 13, 12a-hydroxydolineon] yielded a melting point of 155 to 156 °C.

With `CC(C)=CCc1cc2c(cc1O)OC[C@H]1c3cc4c(cc3O[C@@H]21)OCO4` the “SR (safety ratio), T. brucei rhodesiense” value [1] was > 5.83 and the IC50 [1, 11] was 4.87 ± 0.49 µM.

With `Oc1cc(O)c2c(c1)O[C@H](c1ccc(O)c(O)c1)[C@@H](O)C2` [Compound 3, (+)-catechin] the MIC [2] was > 20 µM, the IC50 [1, 10] was > 100 µM and the IC50 [3, 14] was > 100 µM. For the same compound, the IC50 [4, 13] was > 100 µM, the IC50 [5] was 2260 µM and the IC50 [6] was 360 µM. The inhibition at 250 µg/mL [6] was 97.5 ± 0.6%.

`NNC(=O)c1ccncc1` [Isoniazid, reference compound] gave an MIC [2] of 0.02 µM (≈ 0.00274 µg/mL).

In the case of `c1cc2cc3c(cc2o1)OC[C@H]1c2cc4c(cc2O[C@@H]31)OCO4` [Compound 6, neodulin], the MIC [2] is reported as > 64.9 µM, the IC50 [3, 12] is reported as > 32.5 µM and the IC50 [4, 13] is reported as > 32.5 µM.

With `COc1cc2c(cc1C1COc3cc4occc4cc3C1=O)OCO2` (stereo not drawn) [Compound 11, neotenone] the MIC [2] was > 62 µM, the melting point was 174 to 175 °C and the IC50 [1, 10] was 17 ± 1.83 µM. The IC50 [3, 12] was > 31 µM and the IC50 [4, 13] was > 31 µM.

For `O=c1c(O)c(-c2ccc(O)c(O)c2)oc2cc(O)cc(O)c12` [Compound 2, quercetin], the MIC [2] was > 20 µM, the IC50 [1, 10] was 8.44 ± 0.16 µM and the IC50 [1, 11] was 8.91 ± 0.03 µM. The “SR (safety ratio), T. brucei rhodesiense” value ([1]; safety ratio) was 4.52, the IC50 [3, 12] was > 50 µM and the IC50 [4, 13] was > 50 µM.

For `OC[C@H]1O[C@@H](OCCc2ccc(O)cc2)[C@H](O)[C@@H](O)[C@@H]1O` [Compound 4, salidroside], the MIC [2] was > 20 µM, the IC50 [1, 10] was > 100 µM and the IC50 [3, 12] was > 100 µM. For the same compound, the IC50 [4, 13] was > 100 µM, the IC50 [6] was 1380 µM and the inhibition at 250 µg/mL [6] was 47.7 ± 1.8%.

With `O=C1c2cc3ccoc3cc2O[C@@H]2COc3cc4c(cc3[C@H]12)OCO4` [Compound 14, dolineon] the MIC [2] was > 59.9 µM, the IC50 [1, 15] was 18.7 ± 3.2 µM and the IC50 [3, 14] was > 29.6 µM. The IC50 [4] was > 29.6 µM, the IC50 [6] was 660 µM and the inhibition at 250 µg/mL [6] was 54.2 ± 8.9%.

In the case of `c1cc2cc3c(cc2o1)OCc1c-3oc2cc3c(cc12)OCO3` [Compound 5, neoduleen], the MIC [2] is reported as > 62.1 µM, the IC50 [3, 12] is reported as > 31 µM and the IC50 [4, 13] is reported as > 31 µM.

In the case of `C=C(C)[C@H]1Cc2c(ccc3c2O[C@@H]2COc4cc(OC)c(OC)cc4[C@@H]2C3=O)O1` [Compound 20, rotenone], the MIC [2] is reported as > 52.3 µM, the IC50 ([1]; Trypanosoma brucei, RHODESIENSE, 72 h, read-out: T. br (IC50 μM)) is reported as 7.51 ± 0.17 µM and the IC50 [3, 14] is reported as > 26.2 µM. The cytotoxicity [7] was “cytotoxic” and the IC50 [4] was > 26.2 µM.

`COc1ccc2c(c1)OCC(c1cc3c(cc1OC)OCO3)C2=O` (stereo not drawn) [Compound 12, 7-methoxy-3-(6-methoxybenzo [d] [1,3]dioxol-5-yl) chroman-4-one] gave a melting point of 133 to 135 °C and an inhibition at 250 µg/mL [6] of 17.7 ± 0.3%.

In the case of `COc1cc2c(cc1-c1coc3cc4occc4cc3c1=O)OCO2` [Compound 22, dehydroneotenone], the MIC [2] is reported as > 61.7 µM, the IC50 [3, 12] is reported as > 30.9 µM and the IC50 [4, 13] is reported as > 30.9 µM.

`CC1(C)N=C(N)N=C(N)N1c1ccc(Cl)cc1` [Cycloguanil, reference compound] showed an IC50 [3, 12] of 0.076 ± 0.016 µM and an IC50 [4, 13] of 10.7 ± 1.62 µM.

Compound `CC1(C)Oc2cc3c(cc2CC1O)[C@@H]1Oc2cc(O)ccc2[C@@H]1CO3` (stereo partly drawn) [Compound 23, rautandiol A] has a melting point of 194 to 196 °C, an IC50 [6] of 280 µM and an inhibition at 250 µg/mL [6] of 83.9 ± 1%.

`CCc1nc(N)nc(N)c1-c1ccc(Cl)cc1` [Pyrimethamine, reference compound] showed an IC50 [3, 12] of 0.095 ± 0.02 µM and an IC50 [4, 13] of 23.2 ± 2.24 µM.

Work on `CO[C@H]1/C=C/O[C@@]2(C)Oc3c(C)c(O)c4c(O)c(c(/C=N/N5CCN(C)CC5)c(O)c4c3C2=O)NC(=O)/C(C)=C\C=C\[C@H](C)[C@H](O)[C@@H](C)[C@@H](O)[C@@H](C)[C@H](OC(C)=O)[C@@H]1C` [Rifampin, reference compound] yielded an MIC [2] of 0.08 µM (≈ 0.0658 µg/mL).

In the case of `COc1ccc(C2COc3cc4occc4cc3C2=O)c(OC)c1OC` (stereo not drawn) [Compound 16, nepseudin], the MIC [2] is reported as > 56.4 µM, the IC50 [3, 12] is reported as > 28.2 µM and the IC50 [4, 13] is reported as > 28.2 µM.

In the case of `CC(C)=CCc1cc2c(cc1O)OC[C@@H]1c3cc4c(cc3O[C@H]21)OCO4` [Compound 15, (−)-2-isopentenyl-3-hydroxy-8-9-methylenedioxypterocarpan], the MIC [2] is reported as > 56.8 µM, the IC50 [1, 10] is reported as 4.87 ± 0.49 µM and the “SR (safety ratio), T. brucei rhodesiense” value ([1]; safety ratio) is reported as > 5.83. For the same compound, the IC50 [3, 12] was > 28.4 µM, the IC50 [4, 13] was > 28.4 µM and the inhibition at 250 µg/mL [6] was 31.5 ± 2.1%.

For `CC(C)(O)C1Cc2cc3c(cc2O1)OC[C@H]1c2ccc(O)cc2O[C@@H]31` (stereo partly drawn) [Compound 24, rautandiol B], the MIC [2] was > 20 µM, the melting point was 209 to 213 °C and the IC50 [1, 10] was 23.5 ± 1.59 µM. The IC50 [3, 12] was 0.4 ± 0.07 µM, the IC50 [4, 13] was 0.74 ± 0.29 µM and the “SR (safety ratio), P. falciparum K1CB1” value ([4]; safety ratio) was 133. For the same compound, the “cytotoxicity on VERO cells” value [8] was “non-cytotoxic”, the “cytotoxicity on BHK21 cells” value [9] was “non-cytotoxic” and the inhibition at 250 µg/mL [6] was 29.3 ± 3.1%.

In the case of `COc1cc2c(cc1O)[C@H]1Oc3cc4c(cc3[C@H]1CO2)OCO4` [Compound 19, (−)-2-hydroxypterocarpin], the MIC [2] is reported as > 56.8 µM, the melting point is reported as 223 to 225 °C and the IC50 [3, 12] is reported as > 28.4 µM. For the same compound, the IC50 [4, 13] was > 28.4 µM.

In the case of `COc1cc2c(cc1-c1cc3cc4ccoc4cc3oc1=O)OCO2` [Compound 10, pachyrrhizine], the MIC [2] is reported as > 64.7 µM, the IC50 [3, 14] is reported as > 32.3 µM and the IC50 [4] is reported as > 32.3 µM.

With `C=C(C)C1Cc2c(ccc3c2O[C@@H]2COc4cc(OC)c(OC)cc4[C@]2(O)C3=O)O1` (stereo partly drawn) [Compound 21, 12a-hydroxyrotenone] the MIC [2] was > 55.2 µM, the IC50 [1, 15] was 8.63 ± 1.14 µM and the IC50 [3, 14] was > 27.6 µM. For the same compound, the cytotoxicity [7] was “cytotoxic”, the IC50 [4] was > 27.6 µM and the inhibition at 250 µg/mL [6] was 19.9 ± 11.4%.
